Data taken from PubChem BioAssay AID2060500 (Molecular Pharmacology Branch, DTP, NCI, 2025).

Tested on: 596521-263-R-J1-PDC complex spheroids, viability % of control
Test: Anticancer human tumor 596521-263-R-J1-PDC patient-derived soft tissue sarcoma cell line growth inhibition [GQUAD]
Conditions: for IC50: curve of first compound; for viability, T/C: stronger effect = lower value; active = viability on the fitted dose curve at most 10% of control; inactive = the rest
Outline: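 Tumor cells were grown as complex spheroids with HUVEC endothelial cells and mesenchymal stem cells as stroma. G-quadruplex stabilizers were combined with targeted agents over half-log dilutions from near the clinical Cmax, or from 10 microM.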

[1] = second compound 0.0316 µM, first compound 0.0316 µM
[2] = second compound 0.0316 µM, first compound 0.1 µM
[3] = second compound 0.0316 µM, first compound 0.316 µM
[4] = second compound 0.0316 µM, first compound 1 µM
[5] = second compound 0.0316 µM, first compound 3.16 µM
[6] = second compound 0.0316 µM, first compound 10 µM
[7] = second compound 0.1 µM, first compound 0.0316 µM
[8] = second compound 0.1 µM, first compound 0.1 µM
[9] = second compound 0.1 µM, first compound 0.316 µM
[10] = second compound 0.1 µM, first compound 1 µM
[11] = second compound 0.1 µM, first compound 3.16 µM
[12] = second compound 0.1 µM, first compound 10 µM
[13] = second compound 0.316 µM, first compound 0.0316 µM
[14] = second compound 0.316 µM, first compound 0.1 µM
[15] = second compound 0.316 µM, first compound 0.316 µM
[16] = second compound 0.316 µM, first compound 1 µM
[17] = second compound 0.316 µM, first compound 3.16 µM
[18] = second compound 0.316 µM, first compound 10 µM
[19] = second compound 1 µM, first compound 0.0316 µM
[20] = second compound 1 µM, first compound 0.1 µM
[21] = second compound 1 µM, first compound 0.316 µM
[22] = second compound 1 µM, first compound 1 µM
[23] = second compound 1 µM, first compound 3.16 µM
[24] = second compound 1 µM, first compound 10 µM
[25] = second compound 3.16 µM, first compound 0.0316 µM
[26] = second compound 3.16 µM, first compound 0.1 µM
[27] = second compound 3.16 µM, first compound 0.316 µM
[28] = second compound 3.16 µM, first compound 1 µM
[29] = second compound 3.16 µM, first compound 3.16 µM
[30] = second compound 3.16 µM, first compound 10 µM
[31] = second compound 10 µM, first compound 0.0316 µM
[32] = second compound 10 µM, first compound 0.1 µM
[33] = second compound 10 µM, first compound 0.316 µM
[34] = second compound 10 µM, first compound 1 µM
[35] = second compound 10 µM, first compound 3.16 µM
[36] = second compound 10 µM, first compound 10 µM
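Also: spheroids exposed to drugs for 7 days before viability reading.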
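For viability, T/C in this document: 100% = DMSO vehicle control viability.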

C#Cc1c(F)ccc2cc(O)cc(-c3ncc4c(N5CC6CCC(C5)N6)nc(OCC56CCCN5CC(F)C6)nc4c3F)c12 (stereo unspecified) + Cc1[nH]c2ccc(F)cc2c1-c1nc2c3cccnc3c3ncccc3c2[nH]1
1390 nM: IC50 (second compound 0.1 µM)
1490 nM: IC50 (second compound 10 µM)
1710 nM: IC50 (second compound 3.16 µM)
inactive: viability, T/C [1] 111% | viability, T/C [2] 94.7% | viability, T/C [3] 89.1% | viability, T/C [4] 60.9% | viability, T/C [5] 17.9% | viability, T/C [6] 18.9% | viability, T/C [7] 104% | viability, T/C [8] 93.3% | viability, T/C [9] 97.4% | viability, T/C [10] 62.1% | viability, T/C [11] 17.5% | viability, T/C [12] 22.7% | viability, T/C [13] 113% | viability, T/C [14] 95.6% | viability, T/C [15] 97.3% | viability, T/C [16] 62.5% | viability, T/C [17] 16.1% | viability, T/C [18] 21.2% | viability, T/C [19] 88% | viability, T/C [20] 87.7% | viability, T/C [21] 92.9% | viability, T/C [22] 59.9% | viability, T/C [23] 21.1% | viability, T/C [24] 22.5% | viability, T/C [25] 83.8% | viability, T/C [26] 95.1% | viability, T/C [27] 80.7% | viability, T/C [28] 65.9% | viability, T/C [29] 31.6% | viability, T/C [30] 29% | viability, T/C [31] 78.3% | viability, T/C [32] 78% | viability, T/C [33] 81% | viability, T/C [34] 60.8% | viability, T/C [35] 29.1% | viability, T/C [36] 30%
1380 nM: IC50 (second compound 0.316 µM)
1350 nM: IC50 (second compound 1 µM)
1280 nM: IC50 (second compound 0.0316 µM)

CC(=O)O[C@H]1C(=O)[C@@]2(C)[C@H]([C@H](OC(=O)c3ccccc3)[C@]3(O)C[C@H](OC(=O)[C@H](O)[C@@H](NC(=O)c4ccccc4)c4ccccc4)C(C)=C1C3(C)C)[C@]1(OC(C)=O)CO[C@@H]1C[C@@H]2O + Cc1[nH]c2ccc(F)cc2c1-c1nc2c3cccnc3c3ncccc3c2[nH]1
144 nM: IC50 (second compound 0.1 µM)
226 nM: IC50 (second compound 10 µM)
122 nM: IC50 (second compound 0.0316 µM)
active: viability, T/C [4] 0.81% | viability, T/C [5] 0.38% | viability, T/C [6] 0.28% | viability, T/C [10] 0.74% | viability, T/C [11] 0.23% | viability, T/C [12] 0.22% | viability, T/C [16] 1.26% | viability, T/C [17] 0.2% | viability, T/C [18] 1.66% | viability, T/C [22] 1.83% | viability, T/C [23] 0.31% | viability, T/C [24] 0.28% | viability, T/C [28] 1.48% | viability, T/C [29] 0.34% | viability, T/C [30] 1.18% | viability, T/C [34] 1.48% | viability, T/C [35] 0.49% | viability, T/C [36] 0.31%
173 nM: IC50 (second compound 0.316 µM)
212 nM: IC50 (second compound 1 µM)
204 nM: IC50 (second compound 3.16 µM)
inactive: viability, T/C [1] 90.8% | viability, T/C [2] 55.8% | viability, T/C [3] 20.6% | viability, T/C [7] 96.1% | viability, T/C [8] 60.2% | viability, T/C [9] 28.2% | viability, T/C [13] 107% | viability, T/C [14] 69.1% | viability, T/C [15] 30.8% | viability, T/C [19] 89.1% | viability, T/C [20] 74.9% | viability, T/C [21] 37.5% | viability, T/C [25] 85.4% | viability, T/C [26] 69% | viability, T/C [27] 39.2% | viability, T/C [31] 71.3% | viability, T/C [32] 65.2% | viability, T/C [33] 42.9%

CC(C)(O)C1CCC(Nc2ccc3ncc(-c4cccc(C(F)(F)F)c4)n3n2)CC1 (stereo unspecified) + Cc1[nH]c2ccc(F)cc2c1-c1nc2c3cccnc3c3ncccc3c2[nH]1
> 10000 nM: IC50 (second compound 0.0316 µM) | IC50 (second compound 0.1 µM) | IC50 (second compound 0.316 µM) | IC50 (second compound 1 µM) | IC50 (second compound 3.16 µM) | IC50 (second compound 10 µM)
inactive: viability, T/C [1] 98.3% | viability, T/C [2] 96.8% | viability, T/C [3] 97.9% | viability, T/C [4] 101% | viability, T/C [5] 102% | viability, T/C [6] 87.2% | viability, T/C [7] 120% | viability, T/C [8] 92.5% | viability, T/C [9] 92.3% | viability, T/C [10] 100% | viability, T/C [11] 96.4% | viability, T/C [12] 81.7% | viability, T/C [13] 98.5% | viability, T/C [14] 90.6% | viability, T/C [15] 103% | viability, T/C [16] 92.3% | viability, T/C [17] 103% | viability, T/C [18] 82.9% | viability, T/C [19] 90.7% | viability, T/C [20] 88.5% | viability, T/C [21] 98.5% | viability, T/C [22] 101% | viability, T/C [23] 106% | viability, T/C [24] 79.5% | viability, T/C [25] 89.3% | viability, T/C [26] 96.5% | viability, T/C [27] 94.1% | viability, T/C [28] 83.2% | viability, T/C [29] 95.2% | viability, T/C [30] 80.6% | viability, T/C [31] 77.7% | viability, T/C [32] 92% | viability, T/C [33] 91% | viability, T/C [34] 86.4% | viability, T/C [35] 84.9% | viability, T/C [36] 68.6%
